Six molecules from patent US10670605B2, “Cysteine reactive probes and uses thereof” (The Scripps Research Institute, priority 2015, dated 2020) can be followed below.

Assay in all cases: Competitive isoTOP-ABPP in situ (fragment-treated cells)
Holding throughout (format): cell-based

For experiment [1], the target named is T1, cysteines in MDA-MB-231 and Ramos cells (Homo sapiens, UniProt A6NDU8).
T1 sequence (A6NDU8 1-294): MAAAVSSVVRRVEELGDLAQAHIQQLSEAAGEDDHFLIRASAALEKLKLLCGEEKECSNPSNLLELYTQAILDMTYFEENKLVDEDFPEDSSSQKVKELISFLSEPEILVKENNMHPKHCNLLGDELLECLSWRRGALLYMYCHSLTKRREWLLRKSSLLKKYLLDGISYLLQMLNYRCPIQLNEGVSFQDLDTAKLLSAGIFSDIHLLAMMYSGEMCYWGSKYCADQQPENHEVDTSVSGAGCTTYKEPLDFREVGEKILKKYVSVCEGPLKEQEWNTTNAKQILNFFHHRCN
Conditions: 200 μM, insitu, 231.

The target of experiment [2] is T2, cysteines in MDA-MB-231 and Ramos cells (Homo sapiens, UniProt O95336).
T2 sequence (O95336 1-258): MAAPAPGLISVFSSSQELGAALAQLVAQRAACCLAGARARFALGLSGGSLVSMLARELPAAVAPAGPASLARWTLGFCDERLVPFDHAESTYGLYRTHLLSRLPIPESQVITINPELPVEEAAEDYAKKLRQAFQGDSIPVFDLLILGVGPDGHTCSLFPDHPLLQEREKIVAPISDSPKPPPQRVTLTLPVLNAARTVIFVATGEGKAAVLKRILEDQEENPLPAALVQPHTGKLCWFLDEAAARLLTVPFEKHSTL
Conditions: 200 μM, insitu.

In experiment [3] the target is cysteines in MDA-MB-231 and Ramos cells (Homo sapiens, UniProt P15121). Conditions: 200 μM, insitu.
Experiment [4] has as its target T3, cysteines in MDA-MB-231 and Ramos cells (Homo sapiens, UniProt P23919).
T3 sequence (P23919 1-212): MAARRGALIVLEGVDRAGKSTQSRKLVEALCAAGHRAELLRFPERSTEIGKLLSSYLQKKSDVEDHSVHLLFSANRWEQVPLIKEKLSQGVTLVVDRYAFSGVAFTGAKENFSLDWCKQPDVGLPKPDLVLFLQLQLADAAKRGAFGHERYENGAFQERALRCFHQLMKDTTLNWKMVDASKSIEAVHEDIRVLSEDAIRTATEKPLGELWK
Particulars: 200 μM, insitu.

Experiment [5] deals with T4, cysteines in MDA-MB-231 and Ramos cells (Homo sapiens, UniProt P31943).
T4 sequence (P31943 1-449): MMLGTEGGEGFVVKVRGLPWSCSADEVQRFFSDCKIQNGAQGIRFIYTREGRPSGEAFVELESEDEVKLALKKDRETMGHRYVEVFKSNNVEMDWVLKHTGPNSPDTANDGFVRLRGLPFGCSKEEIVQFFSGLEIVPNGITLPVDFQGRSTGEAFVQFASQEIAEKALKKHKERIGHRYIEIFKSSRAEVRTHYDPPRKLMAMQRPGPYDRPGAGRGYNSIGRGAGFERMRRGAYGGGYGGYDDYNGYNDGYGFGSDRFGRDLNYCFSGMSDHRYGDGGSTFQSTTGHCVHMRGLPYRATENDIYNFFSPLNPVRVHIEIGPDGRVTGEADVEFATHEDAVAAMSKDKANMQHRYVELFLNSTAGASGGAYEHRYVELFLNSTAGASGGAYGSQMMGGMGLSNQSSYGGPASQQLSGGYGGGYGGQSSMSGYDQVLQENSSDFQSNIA
Conditions: 200 μM, insitu.

Experiment [6] has as its target cysteines in MDA-MB-231 and Ramos cells (Homo sapiens, UniProt P62888). Conditions: 200 μM, insitu, 231.
For experiment [7], the target named is cysteines in MDA-MB-231 and Ramos cells (Homo sapiens, UniProt Q9BXW7). Particulars: 200 μM, insitu, 231.
In experiment [8] the target is T5, cysteines in MDA-MB-231 and Ramos cells (Homo sapiens, UniProt P22307).
T5 sequence (P22307 1-547): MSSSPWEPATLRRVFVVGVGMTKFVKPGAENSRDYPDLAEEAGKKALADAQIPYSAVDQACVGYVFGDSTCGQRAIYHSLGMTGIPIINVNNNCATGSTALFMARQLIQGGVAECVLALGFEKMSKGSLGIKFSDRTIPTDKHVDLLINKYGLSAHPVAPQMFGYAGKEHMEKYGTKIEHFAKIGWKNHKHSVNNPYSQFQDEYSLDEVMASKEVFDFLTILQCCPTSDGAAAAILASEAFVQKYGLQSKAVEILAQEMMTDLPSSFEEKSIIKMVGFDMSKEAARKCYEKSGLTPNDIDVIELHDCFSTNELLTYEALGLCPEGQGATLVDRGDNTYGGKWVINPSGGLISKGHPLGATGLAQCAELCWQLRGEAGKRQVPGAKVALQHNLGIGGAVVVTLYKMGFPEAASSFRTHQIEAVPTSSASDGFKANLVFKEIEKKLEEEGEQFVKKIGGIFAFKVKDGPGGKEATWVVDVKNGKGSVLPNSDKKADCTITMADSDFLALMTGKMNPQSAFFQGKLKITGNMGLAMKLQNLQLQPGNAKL
Particulars: 200 μM, insitu, 231.

The target in experiment [9] is cysteines in MDA-MB-231 and Ramos cells (Homo sapiens, UniProt Q02252). Conditions: 200 μM, insitu, 231.
The target of experiment [10] is T6, cysteines in MDA-MB-231 and Ramos cells (Homo sapiens, UniProt P78417).
T6 sequence (P78417 1-241): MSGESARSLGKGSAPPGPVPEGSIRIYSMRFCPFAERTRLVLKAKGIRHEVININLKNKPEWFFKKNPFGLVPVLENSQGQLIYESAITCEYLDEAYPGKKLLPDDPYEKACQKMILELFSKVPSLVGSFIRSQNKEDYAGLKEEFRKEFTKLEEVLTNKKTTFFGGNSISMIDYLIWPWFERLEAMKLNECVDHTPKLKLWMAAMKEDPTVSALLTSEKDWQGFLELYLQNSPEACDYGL
Conditions: 200 μM, insitu.

cysteines in MDA-MB-231 and Ramos cells (Homo sapiens, UniProt Q9BXW7), sequence (Q9BXW7 24-423): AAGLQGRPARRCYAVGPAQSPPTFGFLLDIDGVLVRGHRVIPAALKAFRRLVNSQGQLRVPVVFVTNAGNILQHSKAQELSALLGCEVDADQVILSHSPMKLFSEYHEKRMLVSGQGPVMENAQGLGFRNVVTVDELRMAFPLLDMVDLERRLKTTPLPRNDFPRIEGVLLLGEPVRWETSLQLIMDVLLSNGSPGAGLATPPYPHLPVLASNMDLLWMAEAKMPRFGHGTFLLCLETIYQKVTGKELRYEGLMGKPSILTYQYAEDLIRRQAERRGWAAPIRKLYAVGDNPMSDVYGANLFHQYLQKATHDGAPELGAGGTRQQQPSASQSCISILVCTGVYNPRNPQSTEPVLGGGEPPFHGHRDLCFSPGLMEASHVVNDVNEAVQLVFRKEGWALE
cysteines in MDA-MB-231 and Ramos cells (Homo sapiens, UniProt Q02252), sequence (Q02252 34-535): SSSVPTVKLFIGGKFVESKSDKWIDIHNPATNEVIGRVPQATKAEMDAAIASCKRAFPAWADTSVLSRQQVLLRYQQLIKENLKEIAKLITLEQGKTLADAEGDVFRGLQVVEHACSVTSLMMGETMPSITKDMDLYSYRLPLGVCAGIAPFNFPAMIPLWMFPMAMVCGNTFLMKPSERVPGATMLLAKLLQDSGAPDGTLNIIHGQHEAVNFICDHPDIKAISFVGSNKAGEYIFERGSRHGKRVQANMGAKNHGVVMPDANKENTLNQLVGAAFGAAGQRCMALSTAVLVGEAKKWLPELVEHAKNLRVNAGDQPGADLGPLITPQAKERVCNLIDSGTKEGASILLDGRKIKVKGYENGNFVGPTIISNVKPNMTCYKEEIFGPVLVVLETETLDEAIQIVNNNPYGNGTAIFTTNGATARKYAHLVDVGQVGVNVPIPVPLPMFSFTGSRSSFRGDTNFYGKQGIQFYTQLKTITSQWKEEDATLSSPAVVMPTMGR

Turning to `O=C(CCl)N1CCC(Cc2ccccc2)CC1` [compound 9], in experiment [1], the “isoTOP-ABPP reactivity A6NDU8_C179 C5orf51” value came out at 20.0. Besides, in experiment [2] (231), the “isoTOP-ABPP reactivity O95336_C32 PGLS” value was found to be 6.7. In addition, the “isoTOP-ABPP reactivity P15121_C299 AKR1B1” value in experiment [3] (231) worked out at 1.4. The “isoTOP-ABPP reactivity P23919_C117 DTYMK” value in experiment [4] (231) came to 7.3. In addition, the “isoTOP-ABPP reactivity P31943_C267 HNRNPH1” value in experiment [5] (231) turned out to be 2.1. In addition, the “isoTOP-ABPP reactivity P62888_C92 RPL30” value in [6] stood at 1.3. Further, the “isoTOP-ABPP reactivity Q9BXW7_C392 CECR5” value in [7] was found to be 1.5.

With `O=C(CCl)NC12CC3CC(CC(C3)C1)C2` [compound 21], in experiment [1], the “isoTOP-ABPP ratio A6NDU8_C179” value amounted to 0.9. Moreover, the “isoTOP-ABPP ratio O95336_C32” value in experiment [2] (231) was found to be 0.9. The “isoTOP-ABPP ratio P15121_C299” value in experiment [3] (231) came to 2.7. Also, in experiment [8], the “isoTOP-ABPP ratio P22307_C71” value is listed as 8.3 and the “isoTOP-ABPP ratio, cysteine P22307_C307” value is recorded as 20.0. Moreover, in experiment [4] (231), the “isoTOP-ABPP ratio, cysteine P23919_C117” value is recorded as 0.9. Further, the “isoTOP-ABPP ratio P31943_C267” value in experiment [5] (231) is on record as 1.5. Also, the “isoTOP-ABPP ratio P62888_C92” value in experiment [6] stood at 0.9. Further, the “isoTOP-ABPP ratio Q02252_C317” value in experiment [9] was determined as 1.5. In addition, the “isoTOP-ABPP ratio Q9BXW7_C392” value in [7] is given as 1.6.

On to `COc1ccc2c(c1)CCCN2C(=O)CCl` [compound 2], for which the “isoTOP-ABPP reactivity A6NDU8_C179 C5orf51” value in experiment [1] turned out to be 4.2. The “isoTOP-ABPP reactivity O95336_C32 PGLS” value in [2] (231) is reported as 14.9. Also, the “isoTOP-ABPP reactivity P15121_C299 AKR1B1” value in [3] (231) was determined as 0.9. In [8], the “isoTOP-ABPP reactivity P22307_C71 SCP2” value worked out at 3.2 and the “isoTOP-ABPP reactivity P22307_C307 SCP2” value is given as 20.0. Besides, in [5] (231), the “isoTOP-ABPP reactivity P31943_C267 HNRNPH1” value is given as 3.8. Moreover, the “isoTOP-ABPP reactivity P62888_C92 RPL30” value in experiment [6] is 1.0. Besides, in [9], the “isoTOP-ABPP reactivity Q02252_C317 ALDH6A1” value stood at 10.3. Further, the “isoTOP-ABPP reactivity Q9BXW7_C392 CECR5” value in experiment [7] is recorded as 3.6.

As to `COc1ccccc1OCCNC(=O)CCl` [compound 28], the “isoTOP-ABPP ratio A6NDU8_C179” value in experiment [1] was 0.8. For the same molecule, the “isoTOP-ABPP ratio P15121_C299” value in [3] (231) is on record as 0.8. Also, the “isoTOP-ABPP ratio P22307_C94” value in experiment [8] amounted to 20.0. For the same molecule, the “isoTOP-ABPP ratio P23919_C163” value in experiment [4] (231) amounted to 0.4. Moreover, the “isoTOP-ABPP ratio P62888_C92” value in experiment [6] stood at 0.9. For the same molecule, the “isoTOP-ABPP ratio P78417_C32” value in [10] (231) is listed as 20.0. The “isoTOP-ABPP ratio Q02252_C317” value in experiment [9] came to 1.1. In addition, in experiment [7], the “isoTOP-ABPP ratio Q9BXW7_C392” value is on record as 1.0.

Consider `C=CC(=O)N(Cc1cccnc1)c1cc(C(F)(F)F)cc(C(F)(F)F)c1` [compound 31], for which, in [2] (ramos), the “isoTOP-ABPP ratio O95336_C32” value turned out to be 1.7. For the same molecule, the “isoTOP-ABPP ratio P15121_C299” value was 0.8 in [3] (231) and 1.3 in experiment [3] (ramos). In addition, the “isoTOP-ABPP ratio P23919_C163” value in experiment [4] (ramos) is 1.0. Besides, the “isoTOP-ABPP ratio P31943_C267” value was found to be 0.7 in experiment [5] (231) and 0.9 in [5] (ramos). The “isoTOP-ABPP ratio P78417_C32” value in experiment [10] (231) is on record as 0.8; in [10] (ramos) it was 2.6.

Take `COc1cc2c(cc1OC)CN(C(=O)CCl)CC2` [compound 8]: the “isoTOP-ABPP reactivity O95336_C32 PGLS” value in experiment [2] (231) is 20.0. Also, in experiment [3] (231), the “isoTOP-ABPP reactivity P15121_C299 AKR1B1” value was determined as 1.7. Besides, in experiment [8], the “isoTOP-ABPP reactivity P22307_C71 SCP2” value is 20.0 and the “isoTOP-ABPP reactivity P22307_C307 SCP2” value is 20.0. In experiment [4] (231), the “isoTOP-ABPP reactivity P23919_C117 DTYMK” value stood at 0.4 and the “isoTOP-ABPP reactivity P23919_C163 DTYMK” value is 0.6. Besides, the “isoTOP-ABPP reactivity P31943_C267 HNRNPH1” value in experiment [5] (231) turned out to be 5.3. In addition, the “isoTOP-ABPP reactivity P62888_C92 RPL30” value in experiment [6] was determined as 1.5. In addition, the “isoTOP-ABPP reactivity P78417_C32 GSTO1” value in experiment [10] (231) came out at 20.0. In experiment [7], the “isoTOP-ABPP reactivity Q9BXW7_C392 CECR5” value amounted to 3.2.
